Assays:
PC-12 cells = experiment: 14C-choline incorporation into phospholipids in PC-12 cells; type: cell-based; conditions: for Phosphatidylcholine (PC) synthesis (incorporation of 14C label into PC): 18 hr pre-incubation with 5 μM fatty acid, FIG. 1
Method: PC-12 cells were maintained in Dulbecco's modified Eagle's medium (DMEM)+10% fetal bovine serum (FBS). For experiments, cells were grown in quintuplicate collagen-coated 35 millimeter (mm) dishes. Cells were incubated for 18 hours (hr) in serum-free DMEM containing 28 μM choline+/−5 micromolar (μM) of DHA, oleic acid, or palmitic acid. Cells were then labeled for 2.5 hr with 0.5 microcurie (μCi)/ml ^14C-choline in serum-free DMEM containing 10-micromolar (μM) choline.
Cells were homogenized in 100 volumes of ice-cold deionized water using a tissue degrader (Polytron PT 10-35, Kinematica A G, Switzerland); 1 ml of aliquots were then mixed with 3 ml of chloroform+methanol mixture (2:1 v/v) and vortexed vigorously for 30 seconds. After cooling for 1 h on ice, the mixture was mixed sequentially with 3 ml of chloroform+methanol mixture (2:1 v/v) and 1 ml of ice-cold deionized water. The mixture was vortexed vigorously and allowed to stand overnight in the cold room (18 h). The organic (lower) and aqueous (upper) phases of the mixtures were separated by centrifugation (10 min at 4° C.; 1000 g). An aliquot (2 ml) of the upper phase was used for determination of CDP-Choline (see below), and 0.1-0.4 ml aliquots of the lower phase were dried under vacuum for phospholipid analysis. Residues of 0.1 ml aliquots of the lower phase were assayed for total phospholipid content by measuring phosphorus. Residues of 0.4 ml aliquots of the lower phase were reconstituted in 40 μl methanol and subjected to thin-layer chromatography using silica G plates (Adsorbosil Plus-1®, Alltech), and a system consisting of chloroform/ethanol/triethylamine/water (30:34:30:8) as the mobile phase. Phospholipid standards were used to identify the corresponding bands under UV light after the plates were sprayed with 0.1% diphenylhexatriene in petroleum ether. Bands for individual phospholipid classes (PC, PE, SM, PS and PI) were scraped off the plates and extracted into 1 ml of methanol; dried under vacuum; and assayed for phosphorus content. Total phosphorus was determined by comparison with standard curves by using KH2PO4 run with each assay. […] Absorbance was measured spectrophotometrically at 820 nm. Phospholipid mass was determined by multiplying the phosphorus content by 25.
In order to assess the effect of omega-3 fatty acids on phospholipid synthesis, PC-12 cells were incubated with ^14C-labeled choline, following an 18-hour pre-incubation with or without DHA. Incorporation of label into phospholipids was then measured. […]
To further characterize the stimulation of phospholipid synthesis by omega-3 fatty acids, PC-12 cells were pre-treated with different doses of DHA and exposed to labeled choline as described in Example 1, then incorporation of ^14C-label into phospholipids was measured. […]

SHSY-5Y cells = experiment: 14C-choline incorporation into phospholipids in SHSY-5Y cells; type: cell-based, human; conditions: for phospholipid synthesis: 18 hr with 10 μM fatty acid, FIG. 3A
Method: (§1) Cells were homogenized in 100 volumes of ice-cold deionized water using a tissue degrader (Polytron PT 10-35, Kinematica A G, Switzerland); 1 ml of aliquots were then mixed with 3 ml of chloroform+methanol mixture (2:1 v/v) and vortexed vigorously for 30 seconds. After cooling for 1 h on ice, the mixture was mixed sequentially with 3 ml of chloroform+methanol mixture (2:1 v/v) and 1 ml of ice-cold deionized water. The mixture was vortexed vigorously and allowed to stand overnight in the cold room (18 h). The organic (lower) and aqueous (upper) phases of the mixtures were separated by centrifugation (10 min at 4° C.; 1000 g). An aliquot (2 ml) of the upper phase was used for determination of CDP-Choline (see below), and 0.1-0.4 ml aliquots of the lower phase were dried under vacuum for phospholipid analysis. Residues of 0.1 ml aliquots of the lower phase were assayed for total phospholipid content by measuring phosphorus. Residues of 0.4 ml aliquots of the lower phase were reconstituted in 40 μl methanol and subjected to thin-layer chromatography using silica G plates (Adsorbosil Plus-1®, Alltech), and a system consisting of chloroform/ethanol/triethylamine/water (30:34:30:8) as the mobile phase. Phospholipid standards were used to identify the corresponding bands under UV light after the plates were sprayed with 0.1% diphenylhexatriene in petroleum ether. Bands for individual phospholipid classes (PC, PE, SM, PS and PI) were scraped off the plates and extracted into 1 ml of methanol; dried under vacuum; and assayed for phosphorus content. Total phosphorus was determined by comparison with standard curves by using KH2PO4 run with each assay. To each sample was added 0.5 ml of 4.5% HclO4/27% H2SO4 and tubes were heated at 180° C. for 3 h. After cooling to room temperature, 5 ml of the color reagent (a 10:1 dilution of solutions containing 2.5 mg/ml ammonium molybdate, 8.2 mg/ml sodium acetate and 100 mg/ml ascorbic acid respectively) was added and the tubes were incubated for 2 h, 37° C. Absorbance was measured spectrophotometrically at 820 nm. Phospholipid mass was determined by multiplying the phosphorus content by 25.
SHSY-5Y cells were grown to near confluency in DMEM+10% FBS in 35 mm dishes. Cells were incubated for 18 hr in serum-free DMEM+1% FBS containing 30 μM choline+/−10 μM of DHA, arachidonic acid, or palmitic acid. Cells were then labeled, and labeled phospholipids were quantified as described for Example 1.
DHA was dissolved in ethanol to a […] concentration and frozen in 10 microliter aliquots at −80° C. For each experiment, one aliquot was diluted in ethanol to 10 micromolar; the volume giving the desired final solution in incubation medium was mixed with an equal volume of BSA solution (1 gm/ml).

brain phospholipids = experiment: Brain phospholipid levels after UMP diet and/or PUFA gavage; type: in vivo, gerbil; conditions: for brain phospholipid levels: 3 weeks, summary of Table 6; for increase in brain total phospholipids over control: DHA 300 mg/kg/day gavage, UMP 0.5% of chow
Method: as §1
Control standard diet (Table 4) consisted of Teklad Global 16% protein rodent diet (Harlan Teklad, Madison, Wis.), which contained 0.1% choline chloride (CC), corresponding to a daily dose of 50 mg/kg/day. UMP was provided as 0.5% UMP.2Na^+ weight/weight, added to the control diet, also prepared by Harlan Teklad, corresponding to 240 mg/kg/day UMP. DHA was administered as 300 mg/kg/day in 200 microliter (mcL)/day 5% Arabic Gum solution, while groups not receiving DHA were administered vehicle (5% Arabic Gum) alone. DHA was provided by Nu-Chek Prep (Elysian, Minn.) and UMP by Numico (Wagenigen, NL).
Gerbils were anesthetized with ketamine and xylazine (80 and 10 mg/kg bwt, i.p.) and sacrificed by immersing the head into liquid nitrogen for 2 min, followed by decapitation. Brains were immediately and quickly (30 seconds) removed using a bone rongeur and stored at −80° C.
Frozen brain hemispheres were weighed and homogenized in 100 volumes of ice-cold deionized water using a tissue degrader (Polytron PT 10-35, Kinematica A G, Switzerland), then analyzed as described in Example 1.
Protein in whole brain homogenate sample was measured for using bicinchoninic acid reagent (Perkin Elmer, Norwalk, Conn., USA). DNA was measured by measuring 460 nm emission of samples on a fluorometer in the presence of bisbenzimidizole, a fluorescent dye known as Hoechst H 33258 (American Hoechst Corporation), which has an excitation maximum at 356 nm and an emission maximum of 458 when bound to DNA.
Adult gerbils were administered control standard diet (Table 4) with our without 0.5% UMP and/or 300 mg/kg/day DHA, EPA, or AA. Groups not receiving DHA were administered vehicle (5% Arabic Gum) alone.

brain CDP-choline = experiment: Brain CDP-choline and CDP-ethanolamine levels (HPLC); type: in vivo, gerbil; conditions: 28 days; for brain CDP-choline levels: FIG. 5A; for brain CDP-ethanolamine levels: FIG. 5B
Method: FIG. 5. Effects of DHA on brain CDP-choline levels (A) and CDP-ethanolamine levels (B). Groups of 8 gerbils received either a control or a UMP-containing diet, and, by gavage, DHA (in a vehicle of 5% gum Arabic solution) or 5% gum Arabic solution alone for 28 days. On the 29th day brains were harvested and assayed for CDP-choline. Data are presented as means±SEM. Statistical analysis was performed using one- or two-way ANOVA followed by Tukey test. a: P<0.05 when compared with the values for control diet plus vehicle group; b: P<0.05 when compared with values for UMP diet plus vehicle group.
Aliquots (2 ml) of the upper (aqueous) phase were dried under a vacuum, reconstituted, and injected into an HPLC. The dried samples were reconstituted in 100-200 μl water and were analyzed by HPLC on an anion exchange column (Alltech Hypersil APS-2, […], 250×4.6 mm). CDP-choline was eluted with a linear gradient of buffers A (H3PO4, 1.75 mM, pH 2.9) and B (NaH2PO2, 500 mM, pH 4.5) from 0 to 100% B over period of 30 min. With this system, CDP-choline was resolved from closely co-eluting substances such as UMP in an isocratic system over a period of 40 min. The retention time for CDP-choline was 9.5 min. The column was washed with buffer B at the end of each experiment and every several days to remove retained nucleotides. Individual nucleotide peaks were detected by UV absorption at 280 nm and were identified by comparison with the positions of authentic standards, as well as by the addition of nucleotide standards to samples.

SMILES: CCC=CCC=CCC=CCC=CCC=CCC=CCCC(=O)O [DHA, 4,7,10,13,16,19-docosahexaenoic acid]
- Phosphatidylcholine (PC) synthesis (incorporation of 14C label into PC) (PC-12 cells): significantly increased
- synthesis of phospholipids (incorporation of 14C-label) (PC-12 cells; different doses of DHA, dose-dependent, FIG. 2): increased
- phospholipid synthesis (SHSY-5Y cells): not
- brain phospholipid, pmol phospholipid per milligrams (mg) protein (brain phospholipids; FIG. 4A, gerbils, 4 weeks, ANOVA vs control): statistically significant effect
- brain phospholipid levels (brain phospholipids; gerbils): increased
- increase in brain total phospholipids over control (brain phospholipids; gerbils, 4 weeks): 12%
- increase in brain levels of PC (brain phospholipids; vs control, Table 5A): 22%
- increase in brain levels of PE (brain phospholipids; vs control, Table 5A): 20%
- increase in brain levels of PI (brain phospholipids; vs control, Table 5A): 52%
- increase in brain levels of sphingomyelin (brain phospholipids; vs control, Table 5A): 24%
- brain CDP-choline levels (brain CDP-choline): decreased
- brain CDP-ethanolamine levels (brain CDP-choline): decreased

SMILES: CCC=CCC=CCC=CCC=CCC=CCCCC(=O)O [EPA, 5,8,11,14,17-eicosapentaenoic acid]
- brain phospholipid levels (brain phospholipids; gerbils): increased

SMILES: O=c1ccn([C@@H]2O[C@H](COP(=O)(O)O)[C@@H](O)[C@H]2O)c(=O)[nH]1 [UMP, uridine monophosphate]
- effects on brain phospholipids (brain phospholipids; After 1 week of treatment): no significant effects
- PtdEtn (brain phospholipids; Table 5 part A, gerbil brain): 84 ± 8 nmol/mg prt
- increases in all 5 of the phospholipids (brain phospholipids; Treatment for 3 weeks, Table 5B): smaller but still significant increases
- increase in brain total phospholipids over control (brain phospholipids; gerbils, 4 weeks): 5%
- increase in brain levels of PC (brain phospholipids; vs control, Table 5A): 13%
- increase in brain levels of PE (brain phospholipids; vs control, Table 5A): 29%
- increase in brain levels of PI (brain phospholipids; vs control, Table 5A): 48%
- brain CDP-choline levels (brain CDP-choline): decreased
- brain CDP-ethanolamine levels (brain CDP-choline): decreased

SMILES: CCCCCC=CCC=CCC=CCC=CCCCC(=O)O [arachidonic acid, 5,8,11,14-eicosatetraenoic acid]
- phospholipid synthesis (SHSY-5Y cells): enhanced
- synthesis of total phospholipids, PC, and phosphatidylethanolamine (SHSY-5Y cells; range of dosages, dose-dependent, FIG. 3B): increased
- brain phospholipid levels (brain phospholipids; gerbils): increased

SMILES: CCCCCCCC/C=C\CCCCCCCC(=O)O [oleic acid, reference compound]
- Phosphatidylcholine (PC) synthesis (incorporation of 14C label into PC) (PC-12 cells): not

SMILES: CCCCCCCCCCCCCCCC(=O)O [palmitic acid, reference compound]
- Phosphatidylcholine (PC) synthesis (incorporation of 14C label into PC) (PC-12 cells): not
- phospholipid synthesis (SHSY-5Y cells): not

— patent US10525071B2, “Compositions containing PUFA and methods of use thereof” (MASSACHUSETS INSTITUE OF TECHNOLOGY, priority 2005, dated 2020)
